Data published in ChEMBL document CHEMBL1201862, “PubChem BioAssay data set” (2004).
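Step 1: Grow cells in 96-well plates. Step 2: Expose to compound for 48 hours at 5 concentrations. Step 3: Interpolate endpoints linearly; if unreached, use highest concentration. Here, GI50 denotes the concentration required for 50% inhibition of growth.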 Calls of active or inactive are those of the source. No stated cut-off is given here; in the data, active = GI50 up to about 1.1 µM and inactive = higher.

Legend:
Assay in all cases: NCI-60 cell line screen, 48 h
786-0 = test system: 786-0
A498 = test system: A498
A549 = test system: A549
CAKI-1 = test system: CAKI-1
CCRF-CEM = test system: CCRF-CEM
COLO 205 = test system: COLO 205
DLD-1 = test system: DLD-1
DMS-273 = test system: DMS-273
EKVX = test system: EKVX
HCC 2998 = test system: HCC 2998
HCT-116 = test system: HCT-116
HCT-15 = test system: HCT-15
HL-60 = test system: HL-60
HOP-62 = test system: HOP-62
HT-29 = test system: HT-29
IGROV-1 = test system: IGROV-1
K562 = test system: K562
KM-20L2 = test system: KM-20L2
KM12 = test system: KM12
LOX IMVI = test system: LOX IMVI
LXFL 529 = test system: LXFL 529
M14 = test system: M14
M19-MEL = test system: M19-MEL
MOLT-4 = test system: MOLT-4
Malme-3M = test system: Malme-3M
NCI-H23 = test system: NCI-H23
NCI-H460 = test system: NCI-H460
NCI-H522 = test system: NCI-H522
OVCAR-3 = test system: OVCAR-3
OVCAR-4 = test system: OVCAR-4
OVCAR-5 = test system: OVCAR-5
OVCAR-8 = test system: OVCAR-8
RPMI-8226 = test system: RPMI-8226
RXF 631 = test system: RXF 631
SF-268 = test system: SF-268
SF-295 = test system: SF-295
SF-539 = test system: SF-539
SK-MEL-28 = test system: SK-MEL-28
SK-MEL-2 = test system: SK-MEL-2
SK-MEL-5 = test system: SK-MEL-5
SK-OV-3 = test system: SK-OV-3
SN12C = test system: SN12C
SNB-19 = test system: SNB-19
SNB-75 = test system: SNB-75
SNB-78 = test system: SNB-78
SW-620 = test system: SW-620
TK-10 = test system: TK-10
U-251 = test system: U-251
UACC-257 = test system: UACC-257
UACC-62 = test system: UACC-62
UO-31 = test system: UO-31
XF498 = test system: XF498

`COc1cc(CNc2nc3ccc(C(F)(F)F)cc3nc2-c2ccccc2)cc(OC)c1OC` was tested. Which GI50 (786-0) did it give?
The GI50 was 28.3 µM (inactive).

And the GI50 (A498)?
The GI50 was 38.2 µM (inactive).

What about the GI50 (A549) of the same compound?
The GI50 was 20 µM (inactive).

And the GI50 (CAKI-1)?
The GI50 was 14.3 µM (inactive).

What about the GI50 (CCRF-CEM) of the same compound?
Its GI50 is 15.3 µM (inactive).

What about the GI50 (COLO 205) of the same compound?
The GI50 was 38.5 µM (inactive).

What about the GI50 (DLD-1) of the same compound?
The GI50 was 48.6 µM (inactive).

And the GI50 (DMS-273)?
Its GI50 is 39 µM (inactive).

What about the GI50 (EKVX) of the same compound?
Its GI50 is 11.9 µM (inactive).

What about the GI50 (HCC 2998) of the same compound?
The GI50 was 38.8 µM (inactive).

What about the GI50 (HCT-116) of the same compound?
Its GI50 is 15.4 µM (inactive).

What about the GI50 (HCT-15) of the same compound?
Its GI50 is 25.4 µM.

And the GI50 (HL-60)?
The GI50 was 5.55 µM (inactive).

And the GI50 (HOP-62)?
Its GI50 is 76.6 µM (inactive).

And the GI50 (HT-29)?
The GI50 was 32.9 µM (inactive).

And the GI50 (IGROV-1)?
The GI50 was 67.3 µM (inactive).

What about the GI50 (K562) of the same compound?
Its GI50 is 18.6 µM (inactive).

What about the GI50 (KM-20L2) of the same compound?
Its GI50 is > 100 µM (inactive).

And the GI50 (KM12)?
The GI50 was 24.6 µM (inactive).

What about the GI50 (LOX IMVI) of the same compound?
Its GI50 is 32.1 µM (inactive).

And the GI50 (LXFL 529)?
Its GI50 is 24.8 µM (inactive).

And the GI50 (M14)?
Its GI50 is 40 µM (inactive).

And the GI50 (M19-MEL)?
The GI50 was 46.2 µM (inactive).

What about the GI50 (MOLT-4) of the same compound?
Its GI50 is 4.4 µM (inactive).

And the GI50 (Malme-3M)?
Its GI50 is 29.6 µM (inactive).

And the GI50 (NCI-H23)?
The GI50 was 27.9 µM (inactive).

What about the GI50 (NCI-H460) of the same compound?
The GI50 was 34.1 µM (inactive).

And the GI50 (NCI-H522)?
Its GI50 is 11.5 µM (inactive).

What about the GI50 (OVCAR-3) of the same compound?
Its GI50 is 26.4 µM (inactive).

What about the GI50 (OVCAR-4) of the same compound?
The GI50 was 19.4 µM (inactive).

What about the GI50 (OVCAR-5) of the same compound?
The GI50 was > 100 µM (inactive).

What about the GI50 (OVCAR-8) of the same compound?
Its GI50 is 47.5 µM (inactive).

What about the GI50 (RPMI-8226) of the same compound?
Its GI50 is 6.11 µM (inactive).

What about the GI50 (RXF 631) of the same compound?
The GI50 was > 100 µM (inactive).

What about the GI50 (SF-268) of the same compound?
The GI50 was 19.5 µM (inactive).

What about the GI50 (SF-295) of the same compound?
Its GI50 is 34.7 µM (inactive).

And the GI50 (SF-539)?
The GI50 was 46.7 µM (inactive).

What about the GI50 (SK-MEL-28) of the same compound?
The GI50 was 55.3 µM (inactive).

What about the GI50 (SK-MEL-2) of the same compound?
Its GI50 is 20.9 µM (inactive).

And the GI50 (SK-MEL-5)?
Its GI50 is 18.7 µM (inactive).

What about the GI50 (SK-OV-3) of the same compound?
Its GI50 is 7.18 µM (inactive).

And the GI50 (SN12C)?
Its GI50 is 29.6 µM (inactive).

What about the GI50 (SNB-19) of the same compound?
Its GI50 is 65.8 µM (inactive).

What about the GI50 (SNB-75) of the same compound?
The GI50 was 8.38 µM (inactive).

And the GI50 (SNB-78)?
Its GI50 is 14.5 µM (inactive).

And the GI50 (SW-620)?
Its GI50 is 21 µM (inactive).

And the GI50 (TK-10)?
The GI50 was 27.1 µM (inactive).

And the GI50 (U-251)?
The GI50 was 44.5 µM (inactive).

And the GI50 (UACC-257)?
Its GI50 is 34.9 µM (inactive).

What about the GI50 (UACC-62) of the same compound?
Its GI50 is 93.1 µM (inactive).

And the GI50 (UO-31)?
The GI50 was 5.93 µM (inactive).

And the GI50 (XF498)?
Its GI50 is 56.1 µM (inactive).
